Laboratory results published in patent US20040043985A1, “6,6-Fused heteroaryl derivatives as matrix metalloproteinase inhibitors” (priority 2002, published 2004).

Target: T1, hMMP-13CD (Homo sapiens, UniProt P45452)
T1 construct: a human MMP-13 catalytic domain (“hMMP-13CD”)
Assay: Inhibition of MMP-13 catalytic domain (thiopeptolide substrate assay)
Format: biochemical
Text: The assays measure the amount by which a test compound reduces the hydrolysis of a thiopeptolide substrate catalyzed by a matrix metalloproteinase enzyme. Such assays are described in detail by Ye et al., in Biochemistry, 1992;31(45):11231-11235, which is incorporated herein by reference. One such assay is described below in Biological Method 1.
Thiopeptolide substrates show virtually no decomposition or hydrolysis at or below neutral pH in the absence of a matrix metalloproteinase enzyme. A typical thiopeptolide substrate commonly utilized for assays is Ac-Pro-Leu-Gly-thioester-Leu-Leu-Gly-OEt. A 100 μL assay mixture will contain 50 mM of N-2-hydroxyethylpiperazine-N′-2-ethanesulfonic acid buffer (“HEPES,” pH 7.0), 10 mM CaCl2, 100 μM thiopeptolide substrate, and 1 mM 5,5′-dithio-bis-(2-nitro-benzoic acid) (DTNB). The thiopeptolide substrate concentration may be varied, for example from 10 to 800 μM to obtain Km and Kcat values. The change in absorbance at 405 nm is monitored on a Thermo Max microplate reader (molecular Devices, Menlo Park, Calif.) at room temperature (22° C.). The calculation of the amount of hydrolysis of the thiopeptolide substrate is based on E412=13600 M^−1 cm^−1 for the DTNB-derived product 3-carboxy-4-nitrothiophenoxide. […]

For O=C(O)c1ccc(Cn2ccc3ccc(C#CCn4ccnn4)cc3c2=O)cc1 [4-[1-oxo-7-(3-[1,2,3]triazol-1-ylprop-1-ynyl)-1H-isoquinolin-2-ylmethyl]benzoic acid], the IC50 was > 50 µM.
